# Experimental data from patent US10881108B2, “Method of protecting field corn from damage by a plant pathogen” (SUMITOMO CHEMICAL COMPANY, LIMITED, priority 2019, dated 2021).
# Experiments:
# Type in all cases: in vivo
# Cercospora zeae-maydis [1] = experiment: Seed dipping, then grey leaf spot inoculation; plant length of aerial part; conditions: seed dipping 0.2 mg per seed, 200 g per hectare; for Plant length in treatment plot (A) / Treatment/control ratio (100 × A/B): 7 days from inoculation
# Method: Seeds of three varieties of field corn were separately dipped in a mefentrifluconazole dilution liquid (prepared by diluting an aqueous suspension concentrate of mefentrifluconazole with water) so that the amount of mefentrifluconazole to be applied to each seed might be 0.2 mg. Then, the field corn seeds were sown to a pot filled with a soil at a sowing rate of 1,000,000 seeds per hectare. That is, the application rate of mefentrifluconazole was 200 g per hectare. Each field corn was incubated in a greenhouse for 12 days from the sowing, and then a pathogen of grey leaf spot (Cercospora zeae-maydis) was inoculated to the foliage of each field corn. Each field corn was incubated in a greenhouse for 7 days from the inoculation, and then plant length of the aerial part of each field corn was measured. The plant length is referred to as ‘the plant length in treatment plot’. As a control experiment, the same procedure was repeated except that dipping treatment with mefentrifluconazole dilution liquid and the inoculation of the pathogen were not conducted. The plant length obtained in the control experiment is referred to as ‘the plant length in control plot’. The same procedure of the example 4 was repeated except for replacing three varieties of field corn with a variety of popcorn, and two varieties of waxy corn.
# Cercospora zeae-maydis [2] = experiment: Seed coating, then grey leaf spot inoculation; fresh weight of aerial part; conditions: seed coating 0.2 mg per seed, 20 g per hectare, 14 days from inoculation
# Method: Seeds of field corn are coated with a mefentrifluconazole aqueous suspension concentrate so that the amount of mefentrifluconazole to be applied to each seed may be 0.2 mg. Then, the field corn seeds are sown to a pot filled with a soil at a sowing rate of 100,000 seeds per hectare. That is, the application rate of mefentrifluconazole is 20 g per hectare. Then, the field corn is incubated in a greenhouse for 10 days, followed by inoculating a pathogen of grey leaf spot (Cercospora zeae-maydis) to the foliage of field corn. The field corn is incubated in a greenhouse for 14 days from the inoculation, and then the fresh weight of the aerial part of the field corn is measured. It is confirmed that the fresh weight is equivalent to that of the control where field corn is not treated with mefentrifluconazole and the pathogen is not inoculated (no-treatment-no-inoculation control) and is bigger than that of the control where field corn is not treated with mefentrifluconazole and the pathogen is inoculated (no-treatment-inoculation control). The same procedure of the example 2 is repeated except for replacing field corn with popcorn, sweet corn, or waxy corn. It is confirmed that the fresh weight of popcorn, sweet corn, or waxy corn is smaller than that of the corresponding no-treatment-no-inoculation control and is equivalent to that of the corresponding no-treatment-inoculation control.
# Cercospora zeae-maydis [3] = experiment: Dripping onto primary leaf, then grey leaf spot inoculation; fresh weight of aerial part; conditions: dripped onto primary leaf 0.2 mg per plant, 200 g per hectare, 14 days from inoculation
# Method: Field corn is sown to a pot filled with a soil at a sowing rate of 1,000,000 seeds per hectare. The field corn is incubated for 10 days in a greenhouse, and then mefentrifluconazole dilution liquid (prepared by diluting an aqueous suspension concentrate of mefentrifluconazole with water) is dripped onto the primary leaf of field corn so that the amount of mefentrifluconazole to be applied to each plant may be 0.2 mg. That is, the application rate of mefentrifluconazole is 200 g per hectare. On the next day of the application, a pathogen of grey leaf spot (Cercospora zeae-maydis) is inoculated to the foliage of field corn. The field corn is incubated in a greenhouse for 14 days from the inoculation, and then fresh weight of the aerial part of the field corn is measured. It is confirmed that the fresh weight is equivalent to that of the control where field corn is not treated with mefentrifluconazole and the pathogen is not inoculated (no-treatment-no-inoculation control) and is bigger than that of the control where field corn is not treated with mefentrifluconazole and the pathogen is inoculated (no-treatment-inoculation control). The same procedure of the example 3 is repeated except for replacing field corn with popcorn, sweet corn, or waxy corn. It is confirmed that the fresh weight of popcorn, sweet corn, or waxy corn is smaller than that of the corresponding no-treatment-no-inoculation control and is equivalent to that of the corresponding no-treatment-inoculation control.
# Cercospora zeae-maydis [4] = experiment: Foliar spray on potted corn, then grey leaf spot inoculation; fresh weight of aerial part; conditions: foliar spray 500 g per hectare, 14 days from inoculation
# Method: Field corn is sown to a pot filled with a soil. It is incubated for 7 days in a greenhouse. Mefentrifluconazole spray liquid (prepared by diluting an aqueous suspension concentrate of mefentrifluconazole with water) is uniformly sprayed onto the foliage of field corn at the amount of 200 L per hectare so that the application rate of mefentrifluconazole may be 500 g per hectare. On the next day of the spraying, a pathogen of grey leaf spot (Cercospora zeae-maydis) is inoculated to the foliage of field corn. The field corn is incubated in a greenhouse for 14 days from the inoculation, and then fresh weight of the aerial part of the field corn is measured. It is confirmed that the fresh weight is equivalent to that of the control where field corn is not treated with mefentrifluconazole and the pathogen is not inoculated (no-treatment-no-inoculation control) and is bigger than that of the control where field corn is not treated with mefentrifluconazole and the pathogen is inoculated (no-treatment-inoculation control). The same procedure of the example 1 is repeated except for replacing field corn with popcorn, sweet corn, or waxy corn. It is confirmed that the fresh weight of popcorn, sweet corn, or waxy corn is smaller than that of the corresponding no-treatment-no-inoculation control and is equivalent to that of the corresponding no-treatment-inoculation control.
# Cercospora zeae-maydis [5] = experiment: Dripping onto first leaf, then grey leaf spot inoculation; plant length of aerial part; conditions: 100 g per hectare; for Plant length in treatment plot (A) / Treatment/control ratio (100 × A/B): dripped onto first leaf 0.1 mg per plant, 7 days from inoculation; for protection from the damage by the pathogen: dripped onto first leaf
# Method: Four varieties of field corn were sown to a pot filled with a soil at a sowing rate of 1,000,000 seeds per hectare. Then each field corn was incubated for 7 days in a greenhouse. A mefentrifluconazole dilution liquid (prepared by diluting an aqueous suspension concentrate of mefentrifluconazole with water) is dripped onto the first leaf of field corn plants so that the amount of mefentrifluconazole to be applied to each plant might be 0.1 mg. That is, the application rate of mefentrifluconazole was 100 g per hectare. Five days after the application, a pathogen of grey leaf spot (Cercospora zeae-maydis) was inoculated to the foliage of each field corn. Each field corn was incubated in a greenhouse for 7 days from the inoculation, and then plant length of the aerial part of each field corn was measured. The plant length is referred to as ‘the plant length in treatment plot’. As a control experiment, the same procedure was repeated except that dripping treatment with mefentrifluconazole dilution liquid and the inoculation of the pathogen were not conducted. The plant length obtained in the control experiment is referred to as ‘the plant length in control plot’. The same procedure of the example 5 was repeated except for replacing four varieties of field corn with two varieties of popcorn, a variety of sweet corn, and two varieties of waxy corn.
# [6] = popcorn, sweet corn, or waxy corn
smiles,measurement,setting,value
CC(O)(Cn1cncn1)c1ccc(Oc2ccc(Cl)cc2)cc1C(F)(F)F (stereo not drawn) [mefentrifluconazole],Plant length in treatment plot (A),Cercospora zeae-maydis [1]; Field corn/DKC5632,58 cm
same,Treatment/control ratio (100 × A/B),Cercospora zeae-maydis [1]; Field corn/DKC5632,95
same,Plant length in treatment plot (A),Cercospora zeae-maydis [1]; Field corn/Koshu,63 cm
same,Treatment/control ratio (100 × A/B),Cercospora zeae-maydis [1]; Field corn/Koshu,105
same,Plant length in treatment plot (A),Cercospora zeae-maydis [1]; Field corn/MAS40F,61 cm
same,Treatment/control ratio (100 × A/B),Cercospora zeae-maydis [1]; Field corn/MAS40F,97
same,Plant length in treatment plot (A),Cercospora zeae-maydis [1]; Popcorn/Yuki-pop,45 cm
same,Treatment/control ratio (100 × A/B),Cercospora zeae-maydis [1]; Popcorn/Yuki-pop,80
same,Plant length in treatment plot (A),Cercospora zeae-maydis [1]; Waxy corn/Ki-mochi,30 cm
same,Treatment/control ratio (100 × A/B),Cercospora zeae-maydis [1]; Waxy corn/Ki-mochi,70
same,Plant length in treatment plot (A),Cercospora zeae-maydis [1]; Waxy corn/Shiro-mochi,51 cm
same,Treatment/control ratio (100 × A/B),Cercospora zeae-maydis [1]; Waxy corn/Shiro-mochi,86
same,protection of field corns compared with popcorn or waxy corns,Cercospora zeae-maydis [1]; Tables 1 and 2,protected much more effectively
same,fresh weight of the aerial part compared with no-treatment-inoculation control,Cercospora zeae-maydis [2]; field corn,bigger
same,fresh weight of the aerial part compared with no-treatment-no-inoculation control,Cercospora zeae-maydis [2]; field corn,equivalent
same,fresh weight compared with no-treatment-inoculation control,Cercospora zeae-maydis [2]; [6],equivalent
same,fresh weight compared with no-treatment-no-inoculation control,Cercospora zeae-maydis [2]; [6],smaller
same,fresh weight of the aerial part compared with no-treatment-inoculation control,Cercospora zeae-maydis [3]; field corn,bigger
same,fresh weight of the aerial part compared with no-treatment-no-inoculation control,Cercospora zeae-maydis [3]; field corn,equivalent
same,fresh weight compared with no-treatment-inoculation control,Cercospora zeae-maydis [3]; [6],equivalent
same,fresh weight compared with no-treatment-no-inoculation control,Cercospora zeae-maydis [3]; [6],smaller
same,fresh weight of the aerial part compared with no-treatment-inoculation control,Cercospora zeae-maydis [4]; field corn,bigger
same,fresh weight of the aerial part compared with no-treatment-no-inoculation control,Cercospora zeae-maydis [4]; field corn,equivalent
same,fresh weight compared with no-treatment-inoculation control,Cercospora zeae-maydis [4]; [6],equivalent
same,fresh weight compared with no-treatment-no-inoculation control,Cercospora zeae-maydis [4]; [6],smaller
same,Plant length in treatment plot (A),Cercospora zeae-maydis [5]; Field corn/DKC5632,63 cm
same,Treatment/control ratio (100 × A/B),Cercospora zeae-maydis [5]; Field corn/DKC5632,103
same,Plant length in treatment plot (A),Cercospora zeae-maydis [5]; Field corn/Koshu,65 cm
same,Treatment/control ratio (100 × A/B),Cercospora zeae-maydis [5]; Field corn/Koshu,108
same,Plant length in treatment plot (A),Cercospora zeae-maydis [5]; Field corn/MAS40F,64 cm
same,Treatment/control ratio (100 × A/B),Cercospora zeae-maydis [5]; Field corn/MAS40F,102
same,Plant length in treatment plot (A),Cercospora zeae-maydis [5]; Field corn/Pioneer 2088,62 cm
same,Treatment/control ratio (100 × A/B),Cercospora zeae-maydis [5]; Field corn/Pioneer 2088,103
same,Plant length in treatment plot (A),Cercospora zeae-maydis [5]; Popcorn/Maru-pop,45 cm
same,Treatment/control ratio (100 × A/B),Cercospora zeae-maydis [5]; Popcorn/Maru-pop,80
same,Plant length in treatment plot (A),Cercospora zeae-maydis [5]; Popcorn/Yuki-pop,53 cm
same,Treatment/control ratio (100 × A/B),Cercospora zeae-maydis [5]; Popcorn/Yuki-pop,84
same,Plant length in treatment plot (A),Cercospora zeae-maydis [5]; Sweet corn/Rancher 82,31 cm
same,Treatment/control ratio (100 × A/B),Cercospora zeae-maydis [5]; Sweet corn/Rancher 82,91
same,Plant length in treatment plot (A),Cercospora zeae-maydis [5]; Waxy corn/Ki-mochi,29 cm
same,Treatment/control ratio (100 × A/B),Cercospora zeae-maydis [5]; Waxy corn/Ki-mochi,67
same,Plant length in treatment plot (A),Cercospora zeae-maydis [5]; Waxy corn/Shiro-mochi,43 cm
same,Treatment/control ratio (100 × A/B),Cercospora zeae-maydis [5]; Waxy corn/Shiro-mochi,73
same,protection from the damage by the pathogen,"Cercospora zeae-maydis [5]; each field corn (four varieties), Table 3",successfully protected
same,protection from the damage by the pathogen,"Cercospora zeae-maydis [5]; popcorns, sweet corn and waxy corns, Table 4",not successfully protected
